We go through 8 compounds from ChEMBL document CHEMBL3244165, “Improved synthesis and in vitro antiviral activities of 5-cyanouridine and 5-cyano-2'-deoxyuridine” (J Med Chem, 1977).

For this assay, the system named is Vaccinia virus. Description: Antiviral activity against Vaccinia virus infected in primary rabbit kidney cells assessed as inhibition of virus-induced cytopathogenicity. It counts as functional, Orthopoxvirus vaccinia. Background: Damage to the host cells serves as the signal in cytopathic effect assays.
Consider `N#Cc1cn([C@@H]2O[C@H](CO)[C@@H](O)[C@H]2O)c(=O)[nH]c1=O`, for which the ID50 was above 3.7 ×10⁻⁴ M. Then `N#Cc1cn([C@H]2C[C@H](O)[C@@H](CO)O2)c(=O)[nH]c1=O`, with 1.6 ×10⁻⁵ M; and `O=c1[nH]c(=O)n([C@H]2C[C@H](O)[C@@H](CO)O2)cc1Br` [BROXURIDINE], with 3.2 ×10⁻⁷ M; and `O=c1[nH]c(=O)n([C@H]2C[C@H](O)[C@@H](CO)O2)cc1Cl` [CHLORODEOXYURIDINE], with 7.6 ×10⁻⁷ M. On to `O=c1[nH]c(=O)n([C@H]2C[C@H](O)[C@@H](CO)O2)cc1F` [FLOXURIDINE], for which the ID50 was determined as 4 ×10⁻⁷ M. The result for `O=c1[nH]c(=O)n([C@H]2C[C@H](O)[C@@H](CO)O2)cc1I` [IDOXURIDINE] reads 1.1 ×10⁻⁶ M; that for `O=c1[nH]c(=O)n([C@H]2C[C@H](O)[C@@H](CO)O2)cc1C(F)(F)F` [TRIFLURIDINE], 3.3 ×10⁻⁷ M; that for `Nc1ncnc2c1ncn2[C@@H]1O[C@H](CO)[C@@H](O)[C@@H]1O` [VIDARABINE], 1.4 ×10⁻⁶ M.
